In patent US6214374A, “Compositions, methods and devices for the transdermal delivery of drugs” (priority 1996, dated 2001):
Where two headings read alike, the source gives them in different places.

Columns and labels:
[1] = Transdermal penetration of progesterone: oleic acid, myristic acid and butylurea enhancers; assay type: in vitro ADME, human
Source text: Excised full-thickness human skin was obtained from elective surgery, (e.g., breast reductions) or occasionally, from amputated legs. The tissue was stored in plastic containers at refrigerator temperature until use, at which time the subcutaneous fat and connective tissue were carefully trimmed off. Skin specimen thickness was in the range 1.5-2.0 mm, with characteristic histological features preserved.
Tritium-labeled progesterone was obtained from NEN-DuPont (Wilmington, Del.), with the label at ring positions 1, 2, 6, and 7. It was incorporated in the test compositions in the range 100 to 500 DPM (Disintegration Per Minute) per microgram of progesterone. The labeled progesterone was incorporated at the pre-polymerization stage, i.e., just as water is added to form the hydrogel polymer. Aliquots of the gelling mixtures were added to small amounts of tritiated progesterone in scintillation vials (after the solvent had been evaporated), and stirred briskly with a small spatula. The vials were then tightly capped and stored at room temperature. […]
Rates of transdermal penetration of progesterone were determined for three samples: A-1, A-2, and A-3. […]
Some of the data from these determinations are plotted in FIG. 16, to illustrate how the rates were determined. […]

[2] = assay type: in vitro ADME, human
Description: Transdermal penetration was performed in a single-chamber, solvent-replacement Diffusion Cell, held vertically and inverted (FIG. 13). Half-inch diameter discs of skin to which nylon washers had been cemented with cyanoacrylate were used. The available diffusional area of each skin disc enclosed by the nylon washer was 0.495 cm^2. The cell was assembled from parts of a commercial PVC coupling manufactured by Genova Products, Inc., Davison, Mich. The body of the coupling serves as the receptor chamber. The skin disc (5), kept flat by the nylon washer (6) cemented to its surface, is seated in the bottom end of the chamber, dermal side in contact with the receptor fluid (8). After test material is applied to the skin surface, an O-ring (4) and a flanged PVC washer (2) coated with aluminum foil (3) are positioned under the nylon washer on the skin, and a retaining nut (1) is carefully tightened under all. A small, teflon-covered magnetic stirring button (7) and the receptor fluid are introduced, after which the top end of the coupling is stoppered with another foil-coated flanged washer (9). After assembly, the cell is held in a rack on a magnetic stirrer, in a 32° C. incubator. The magnetic stirring button is used to stir the receptor fluid in the inverted cell, and this button spins in direct contact with the dermal side of the skin. […]

[3] = cited from earlier work
[4] = Progesterone penetration through a dialysis membrane; assay type: in vitro ADME
Description: Tritium-labeled progesterone was obtained from NEN-DuPont (Wilmington, Del.), with the label at ring positions 1, 2, 6, and 7. It was incorporated in the test compositions in the range 100 to 500 DPM (Disintegration Per Minute) per microgram of progesterone. The labeled progesterone was incorporated at the pre-polymerization stage, i.e., just as water is added to form the hydrogel polymer. Aliquots of the gelling mixtures were added to small amounts of tritiated progesterone in scintillation vials (after the solvent had been evaporated), and stirred briskly with a small spatula. The vials were then tightly capped and stored at room temperature. Milligram portions of this mixture were then taken from widely-spaced sites from within the vials, rapidly weighed, and dispersed in scintillation cocktail for determination of specific activities.
Transdermal penetration was performed in a single-chamber, solvent-replacement Diffusion Cell, held vertically and inverted (FIG. 13). Half-inch diameter discs of skin to which nylon washers had been cemented with cyanoacrylate were used. The available diffusional area of each skin disc enclosed by the nylon washer was 0.495 cm^2. […]
Thus, penetration of progesterone through a dialysis membrane, which was assumed to be more permeable than the skin, was measured to see how much progesterone could accumulate in the receptor of the diffusion cells. […]

[5] = combination of progesterone and estrogen; cited from earlier work
[6] = cited from earlier work; remark: listed apart in the source
[7] = oral, vaginal or rectal; cited from earlier work
[8] = in vivo; cited from earlier work
[9] = Intradermal penetration of progesterone by autoradiography
Source text: Therefore, an alternative procedure was used to acquire skin surface biopsies (Marks and Dawber, 1971, Brit. J. Dermatol. 85:117-123). Surface biopsies consist of a sheet of the top 2-3 layers of the stratum corneum, which retain vellus hairs on the underside, along with fragments of the pilosebaceous ducts known as "follicular casts" (Lavker and Leyden, 1979, "Lamellar Inclusions in Follicular Horny Cells: A New Aspect of Abnormal Keratinization," J. Ultrastruct. Res. 69: 362-370). These samples are produced by application of a drop of cyanoacrylate adhesive on a microscope slide to the surface of the skin, and after the adhesive sets, the slide with adhering tissue is carefully peeled off.
Discs of skin were prepared as described in "Methods", for measurement of intradermal penetration, but using much larger washers to provide test sites of about 10 cm2 in area. A test formula containing 20% progesterone (Sample Z) was applied, and uptake into the skin was allowed to proceed for one hour, and for 20 hours. Surface residue was removed at the indicated times, using the rinse/wipe procedure described. Skin surface biopsies were taken from 1 & 20-Hr skin discs, and coated with photographic emulsion (Illford K-2 emulsion, Illford, London), then allowed to develop for 14 days. Rinsing and fixing were done as prescribed by the manufacturer.

Row | SMILES | efficacy in promoting the penetration of progesterone through the skin [1] | increase of rate after removal of the epidermis [2] | rate of transdermal penetration in vitro ([3]; 2-pyrrolidone enhancer) | rate of transdermal penetration in vitro ([3]; N-methylformamide enhancer) | rate of transdermal penetration in vitro ([3]; no enhancer, acetone solution) | lag time, dialysis membrane [4] | rate of penetration through dialysis membrane ([4]; about 1.5 hours) | mean serum level giving an optimal effect in the treatment of menopause [5] | amount penetrated in a 24-hour period ([6]; 24 hours, thin film in vivo, Guy et al.) | penetration rate reported by Guy et al. ([6]; human skin in vivo) | half life in the body [7] | amount of progesterone in the breast tissue [8] | increase in progesterone concentration in breast tissue [8] | accumulation in follicles vs stratum corneum, autoradiography [9] | distribution of progesterone in the skin, autoradiography [9] | distribution depth within the follicle, autoradiography ([9]; 0.2 mm-long follicular fragment)
1 | CCCCNC(N)=O [n-butylurea, butylurea] | clearly the most efficacious of the three |  |  |  |  |  |  |  |  |  |  |  |  |  |  | 
2 | CC(=O)[C@H]1CC[C@H]2[C@@H]3CCC4=CC(=O)CC[C@]4(C)[C@H]3CC[C@]12C [progesterone, pregn-4-ene-3,20-dione] |  | about 2 fold | 11.4 (+/-4.6) μg/cm^2 /hour | 12.4 (+/-4.4) μg/cm^2 /hour | 0.477 μg/cm^2 /hour | no lag time | about 30 μg/cm^2 /Hr | 2 ng/mL | about 1.2 μg/cm^2 | 1.2 μg/cm^2 /day | about 2.2 hours | high amounts | five-fold | Accumulation in the follicles appeared to be faster than in the stratum corneum | preferential accumulation of progesterone in the pilosebaceous follicles | distributed uniformly to this depth within the lipid-rich interior of the follicle
